The subject of one test is PC3. The test can be described thus: PC3 proliferation (Alamar Blue). The class given is cell-based. As to conditions: Homo sapiens, PC-3; for IC50: PC3 cells. (Resazurin is reduced to fluorescent resorufin, in cell work by metabolically active cells.)
The next test deals with PI3K δ (Homo sapiens, UniProt O00329). The test can be described thus: PI 3-Kinase (human) HTRF assay, PI3K δ. A general note: TR-FRET usually uses a lanthanide donor and a delayed reading to cut background.
A further test has as its target PI3K γ (Homo sapiens, UniProt P48736). Put plainly: PI 3-Kinase (human) HTRF assay, PI3K γ.
Another test addresses PI3K α (Homo sapiens, UniProt P42336). Put plainly: PI 3-Kinase (human) HTRF assay, PI3K α.
The target of a further test is T1, mTOR (Homo sapiens, UniProt P42345).
T1 construct: purchased Invitrogen
Put plainly: mTOR kinase inhibition assay (radiometric or LanthaScreen TR-FRET). The class given is biochemical.

The target of a further test is PI3K β (Homo sapiens, UniProt P42338). Put plainly: PI 3-Kinase (human) HTRF assay, PI3K β.
Test [1] deals with mTORC1 and mTORC2 in 786-O cells. The test can be described thus: Western blot of pNDRG1 in 786-O cells (mTOR pathways). The class given is cell-based, human. As to conditions: FIG. 5.
Excerpt: Cells were subsequently lysed and lysates were subjected to SDS-PAGE followed by Western blot analysis to detect the downstream pathway marker, pNDRG1.
For test [2], the system named is Akt, S6, 4EBP phosphorylation. Put plainly: Western blot of PI3K pathway phosphorylation (Akt, S6, 4EBP). The format is cell-based. On the technique in general: In western blotting, separated proteins are transferred to a membrane and probed.
Test [3] deals with 786-O human kidney carcinoma tumors. Put plainly: In vivo efficacy in 786-O xenograft model. Also on record: species or system nude mice. To be noted: oral, FIG. 6.
Test [4] concerns pAKT(S473), pAKT(T308) in PC3 cells. Put plainly: Western blot of Akt phosphorylation (pAKT) in PC3 cells. The class given is cell-based. To be noted: PC3 model, FIG. 7. The method, then: Cells comprising one or more mutations in PI3Kα, including but not limited to breast cancer cells (e.g., MDA-MB-361, T47D, SKOV-3), and cells comprising one or more mutations in PTEN including but not limited to prostate cancer cells (e.g., PC3), are typically grown in cell growth media such as DMEM supplemented with fetal bovine serum and/or antibiotics, and grown to confluency. Cells are then treated with various concentrations of test compound for about 2 hours and subsequently lysed in cell lysis buffer. Lysates are subjected to SDS-PAGE followed by Western blot analysis to detect downstream signaling markers, including but not limited to pAKT(S473), pAKT(T308), pS6, and p4E-BP1.

Another test deals with NRDG1 phosphorylation. The test can be described thus: Western blot of NRDG1 phosphorylation. To be noted: western blot (FIG. 5B). The format is cell-based.
The test system of the next test is breast cancer model. The test can be described thus: Preclinical breast cancer model (tumor weight / volume). The class given is in vivo. To be noted: combined treatment with Compound A and Compound B (FIG. 2).
Setting [5] is: read-out: PI3K γ IC50, in vitro.

For orientation: IC50 means the midpoint of a concentration-inhibition curve. What is called EC50 is the concentration at which the effect is half-maximal. A lower EC50 goes with an effect from little substance.

Like-named read-outs stand apart in the source and are kept apart here.

T1 sequence (P42345 1360-2549 limits assumed): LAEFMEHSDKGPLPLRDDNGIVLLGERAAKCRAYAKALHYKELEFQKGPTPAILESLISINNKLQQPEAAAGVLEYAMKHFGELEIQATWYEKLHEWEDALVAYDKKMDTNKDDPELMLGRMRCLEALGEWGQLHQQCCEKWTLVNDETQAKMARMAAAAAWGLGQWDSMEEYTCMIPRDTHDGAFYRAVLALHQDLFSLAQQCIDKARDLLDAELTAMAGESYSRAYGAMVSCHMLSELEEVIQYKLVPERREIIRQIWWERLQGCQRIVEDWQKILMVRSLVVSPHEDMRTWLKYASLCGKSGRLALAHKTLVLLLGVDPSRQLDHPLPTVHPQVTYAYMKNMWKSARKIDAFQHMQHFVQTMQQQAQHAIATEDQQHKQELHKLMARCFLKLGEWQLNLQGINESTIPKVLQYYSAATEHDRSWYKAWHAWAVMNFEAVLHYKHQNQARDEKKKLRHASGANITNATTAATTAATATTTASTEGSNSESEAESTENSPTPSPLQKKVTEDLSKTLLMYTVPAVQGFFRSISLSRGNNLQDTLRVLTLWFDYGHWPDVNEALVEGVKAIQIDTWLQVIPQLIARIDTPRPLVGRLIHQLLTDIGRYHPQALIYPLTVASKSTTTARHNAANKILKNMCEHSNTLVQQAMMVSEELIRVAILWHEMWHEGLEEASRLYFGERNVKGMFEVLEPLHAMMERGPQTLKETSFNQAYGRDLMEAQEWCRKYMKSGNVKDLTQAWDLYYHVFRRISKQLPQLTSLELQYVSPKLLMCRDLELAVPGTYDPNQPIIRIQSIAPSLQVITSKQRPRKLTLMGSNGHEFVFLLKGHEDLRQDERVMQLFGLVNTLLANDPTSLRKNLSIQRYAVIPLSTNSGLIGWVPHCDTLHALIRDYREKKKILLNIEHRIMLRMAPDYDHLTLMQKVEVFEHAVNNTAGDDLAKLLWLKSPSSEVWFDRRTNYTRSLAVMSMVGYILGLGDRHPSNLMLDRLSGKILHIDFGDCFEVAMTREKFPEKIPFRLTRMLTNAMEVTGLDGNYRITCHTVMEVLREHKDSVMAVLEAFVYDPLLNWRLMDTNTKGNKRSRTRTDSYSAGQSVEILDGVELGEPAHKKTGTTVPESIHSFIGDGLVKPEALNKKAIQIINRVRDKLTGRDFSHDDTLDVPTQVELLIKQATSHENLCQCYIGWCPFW
Sequence of PI3K β (P42338 whole entry): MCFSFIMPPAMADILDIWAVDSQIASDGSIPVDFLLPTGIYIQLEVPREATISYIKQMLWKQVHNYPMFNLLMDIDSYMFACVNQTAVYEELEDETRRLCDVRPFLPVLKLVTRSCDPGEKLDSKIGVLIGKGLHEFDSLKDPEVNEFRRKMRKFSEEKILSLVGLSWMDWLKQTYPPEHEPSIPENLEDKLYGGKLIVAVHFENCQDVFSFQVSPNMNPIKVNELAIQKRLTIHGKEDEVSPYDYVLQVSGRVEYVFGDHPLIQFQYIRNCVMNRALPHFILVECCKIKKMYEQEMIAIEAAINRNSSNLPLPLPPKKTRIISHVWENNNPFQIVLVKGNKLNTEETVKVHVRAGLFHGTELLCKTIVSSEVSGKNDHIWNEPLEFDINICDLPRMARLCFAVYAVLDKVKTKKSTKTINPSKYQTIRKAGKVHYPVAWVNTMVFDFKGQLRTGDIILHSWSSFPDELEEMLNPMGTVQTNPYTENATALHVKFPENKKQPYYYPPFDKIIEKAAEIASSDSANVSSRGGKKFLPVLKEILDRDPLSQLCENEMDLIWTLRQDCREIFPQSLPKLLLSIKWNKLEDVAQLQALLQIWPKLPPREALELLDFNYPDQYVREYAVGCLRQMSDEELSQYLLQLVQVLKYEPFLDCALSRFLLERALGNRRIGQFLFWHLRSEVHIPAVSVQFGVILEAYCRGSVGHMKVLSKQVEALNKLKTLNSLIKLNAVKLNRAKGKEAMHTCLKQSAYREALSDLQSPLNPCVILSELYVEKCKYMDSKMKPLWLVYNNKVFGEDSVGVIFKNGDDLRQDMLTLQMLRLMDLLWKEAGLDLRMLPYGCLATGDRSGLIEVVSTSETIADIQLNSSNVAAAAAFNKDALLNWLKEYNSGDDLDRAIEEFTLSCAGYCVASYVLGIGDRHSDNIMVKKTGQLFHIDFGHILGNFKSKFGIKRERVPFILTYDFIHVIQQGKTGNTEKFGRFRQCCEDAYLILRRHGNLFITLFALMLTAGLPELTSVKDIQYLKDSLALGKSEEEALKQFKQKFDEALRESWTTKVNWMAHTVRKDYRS
Sequence of PI3K β (P27986 whole entry partner): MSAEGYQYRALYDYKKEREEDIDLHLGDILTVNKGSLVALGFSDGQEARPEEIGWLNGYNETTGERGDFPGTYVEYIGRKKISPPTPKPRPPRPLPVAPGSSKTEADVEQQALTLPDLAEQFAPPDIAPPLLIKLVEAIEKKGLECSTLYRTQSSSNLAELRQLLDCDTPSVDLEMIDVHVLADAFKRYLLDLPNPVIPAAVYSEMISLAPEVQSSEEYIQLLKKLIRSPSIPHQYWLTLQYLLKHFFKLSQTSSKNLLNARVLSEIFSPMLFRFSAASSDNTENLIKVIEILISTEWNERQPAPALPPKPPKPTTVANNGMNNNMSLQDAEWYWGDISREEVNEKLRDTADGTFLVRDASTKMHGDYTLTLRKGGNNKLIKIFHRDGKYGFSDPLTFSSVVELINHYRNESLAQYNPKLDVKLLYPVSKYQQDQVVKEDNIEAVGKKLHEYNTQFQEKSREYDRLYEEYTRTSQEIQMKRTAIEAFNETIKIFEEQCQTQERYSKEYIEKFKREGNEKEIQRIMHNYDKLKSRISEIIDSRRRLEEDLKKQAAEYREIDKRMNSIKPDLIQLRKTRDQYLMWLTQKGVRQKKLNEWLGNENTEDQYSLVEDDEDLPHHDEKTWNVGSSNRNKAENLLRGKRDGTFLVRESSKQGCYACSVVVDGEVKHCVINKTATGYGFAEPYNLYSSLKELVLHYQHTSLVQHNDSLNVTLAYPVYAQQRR
Sequence of PI3K δ (O00329 whole entry): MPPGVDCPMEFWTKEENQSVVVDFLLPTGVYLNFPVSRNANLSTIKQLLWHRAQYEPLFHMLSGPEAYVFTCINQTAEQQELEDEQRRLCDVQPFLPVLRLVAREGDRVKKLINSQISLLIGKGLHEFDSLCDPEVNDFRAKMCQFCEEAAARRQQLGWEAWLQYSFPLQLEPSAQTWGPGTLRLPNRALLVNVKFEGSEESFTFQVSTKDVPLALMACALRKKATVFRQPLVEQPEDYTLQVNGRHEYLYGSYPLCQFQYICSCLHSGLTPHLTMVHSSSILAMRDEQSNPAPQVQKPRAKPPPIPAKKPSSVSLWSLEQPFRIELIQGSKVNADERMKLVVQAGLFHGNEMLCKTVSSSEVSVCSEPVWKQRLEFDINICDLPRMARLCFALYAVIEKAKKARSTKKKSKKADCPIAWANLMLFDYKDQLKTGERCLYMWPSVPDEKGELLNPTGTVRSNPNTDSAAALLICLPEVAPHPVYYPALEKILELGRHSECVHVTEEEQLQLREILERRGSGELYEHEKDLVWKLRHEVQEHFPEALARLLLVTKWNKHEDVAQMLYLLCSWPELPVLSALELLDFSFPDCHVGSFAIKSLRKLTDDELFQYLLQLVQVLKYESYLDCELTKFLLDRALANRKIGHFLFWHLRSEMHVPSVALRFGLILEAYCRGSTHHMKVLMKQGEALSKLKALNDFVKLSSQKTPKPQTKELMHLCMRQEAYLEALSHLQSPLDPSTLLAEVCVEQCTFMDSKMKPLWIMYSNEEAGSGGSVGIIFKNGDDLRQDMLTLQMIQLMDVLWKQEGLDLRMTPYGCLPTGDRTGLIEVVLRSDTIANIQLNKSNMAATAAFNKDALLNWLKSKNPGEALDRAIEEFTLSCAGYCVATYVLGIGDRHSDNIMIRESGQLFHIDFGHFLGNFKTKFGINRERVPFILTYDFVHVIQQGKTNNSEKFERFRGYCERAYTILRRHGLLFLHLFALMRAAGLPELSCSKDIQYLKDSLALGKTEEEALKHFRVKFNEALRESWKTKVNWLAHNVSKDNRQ
Sequence of PI3K δ (P27986 whole entry partner): as the sequence (P27986 whole entry partner) above
Description for PI3K β: An exemplary system is PI 3-Kinase (human) HTRF™ Assay from Upstate. […] Briefly, the assay is a time resolved FRET assay that indirectly measures PIP3 product formed by the activity of a PI3-K. The kinase reaction is performed in a microtitre plate (e.g., a 384 well microtitre plate). The total reaction volume is approximately 20 ul per well. In the first step, each well receives 2 ul of test compound in 20% dimethylsulphoxide resulting in a 2% DMSO final concentration. […] The plate is sealed and incubated for 15 minutes at room temperature. […] The plate is sealed and incubated for 1 hour at room temperature. The reaction is stopped by adding 5 ul of Stop Solution per well and then 5 ul of Detection Mix is added per well. The plate is sealed, incubated for 1 hour at room temperature, and then read on an appropriate plate reader. Data is analyzed and IC50s are generated using GraphPad Prism 5.

In the test on PC3, `O=C(c1cnc2ccc(-c3cnc(Cl)c(NS(=O)(=O)c4cccc(F)c4)c3)cn12)N1CCOCC1` [Compound 458] returned an IC50 of under 1000 nM.
Regarding `Nc1nc2cc(-c3ccc4ncc(C(=O)N5CC(N6CC[C@@H](O)C6)C5)n4c3)ccc2o1` [Compound 470], the IC50 in the test on PC3 is under 10000 nM; on PI3K δ (read-out: PI3K δ IC50, in vitro) it was under 10000 nM.
For the compound `Nc1nc2cc(-c3ccc4ncc(C(=O)N5CCC(F)(F)C5)n4c3)ccc2o1` [Compound 471], the half-inhibitory concentration (IC50) in the test with PC3 was under 10000 nM.
On the same count and under the same terms, in the case of `CC(C)N1CCC(n2cnc3ccc(-c4cnc(Cl)c(NS(C)(=O)=O)c4)cc3c2=O)CC1` [Compound 523] it was under 10000 nM; in that of `COc1ncc(-c2ccc3ncc(C(=O)N4CCOCC4)n3c2)cc1NS(=O)(=O)c1cccnc1` [Compound 462], under 1000 nM; in that of `Nc1nc2cc(-c3ccc4ncc(C(=O)N5C6CCC5COC6)n4c3)ccc2o1` [Compound 480], under 1000 nM.
Same read-out and setting: next, `COc1ncc(-c2ccc3ncn(C4CCN(C)CC4)c(=O)c3c2)cc1NS(=O)(=O)c1ccccc1` [Compound 524]: under 1000 nM; `O=C(c1cnc2ccc(-c3cnc(Cl)c(NS(=O)(=O)c4ccccc4)c3)cn12)N1CCOCC1` [Compound 451]: under 1000 nM; `COc1ncc(-c2ccc3ncn(C4CCN(C(C)C)CC4)c(=O)c3c2)cc1NS(=O)(=O)c1ccccc1` [Compound 522]: under 1000 nM.
On the same count and under the same terms, in the case of `C[C@H]1CN(C2CN(C(=O)c3cnc4ccc(-c5ccc6oc(N)nc6c5)cn34)C2)CCN1` [Compound 510] it was under 10000 nM; in that of `CC1(C)CN(C2CN(C(=O)c3cnc4ccc(-c5ccc6oc(N)nc6c5)cn34)C2)CCN1` [Compound 515], under 1000 nM.
In the test with PC3, `CO[C@@H]1CCN(C(=O)c2cnc3ccc(-c4ccc5oc(N)nc5c4)cn23)C1` [Compound 464] registered an IC50 of under 10000 nM.
Take `O=C(c1cnc2ccc(-c3cnc(Cl)c(NS(=O)(=O)c4ccccc4F)c3)cn12)N1CCOCC1` [Compound 452]: the half-inhibitory concentration (IC50) with PC3 is under 10000 nM.
Same read-out and setting: in the case of `Nc1nc2cc(-c3ccc4ncc(C(=O)N5CC(F)(F)C5)n4c3)ccc2o1` [Compound 473] it was under 1000 nM.
For the compound `C[C@H]1CN(C2CN(C(=O)c3cnc4ccc(-c5ccc6oc(N)nc6c5)cn34)C2)CCN1C` [Compound 512], the results for the half-inhibitory concentration (IC50) in the test with PC3 and on PI3K γ (setting [5]) were under 1000 nM and under 10000 nM, respectively.
As for `C[C@@H]1CN(C2CN(C(=O)c3cnc4ccc(-c5ccc6oc(N)nc6c5)cn34)C2)CCN1C` [Compound 508], the IC50 in the test on PC3 is under 1000 nM.
On to `C=Cc1oc(NC(C)=O)nc1/C=C/c1nn(C)c2ncnc(N)c12` [Compound 2], for which the concentration for half-maximal inhibition (IC50) at PI3K α was under 10000 nM; on mTOR (Table 1, read-out: mTOR IC50) it was under 100 nM; against PI3K γ, under 1000 nM; against PI3K β, over 10000 nM; against PI3K δ it was under 1000 nM. In the test with PC3 (Table 1), this compound returned an EC50 of under 1000 nM.
For `COc1cccc2cc(-c3nn(C4CCOCC4)c4ncnc(N)c34)[nH]c12` [Compound 63], the IC50 on PI3K α (read-out: PI3K α IC50) is 100 to 500 nM; at mTOR (Table 2, read-out: mTORC IC50) it was under 5 nM; at PI3K γ (read-out: PI3K γ IC50, Table 2), 10 to 25 nM; at PI3K β (read-out: PI3K β IC50, Table 2) it was over 500 nM; at PI3K δ (read-out: PI3K δ IC50), 10 to 25 nM.
`COC1CN(C(=O)c2cnc3ccc(-c4ccc5oc(N)nc5c4)cn23)C1` [Compound 467] registered a 50% inhibitory concentration (IC50) in the test on PC3 of under 1000 nM.
Same read-out and setting: next, `Nc1nc2cc(-c3ccc4ncc(C(=O)N5CC(N6CC[C@H](O)C6)C5)n4c3)ccc2o1` [Compound 469]: under 10000 nM.
As for `Nc1ncnc2c1c(-c1cc3cc(O)cc(Cl)c3[nH]1)nn2C1CCOCC1` [Compound 68], the IC50 at PI3K α (read-out: PI3K α IC50, Table 2) was 100 to 500 nM; on mTOR (Table 2, read-out: mTORC IC50), under 5 nM; at PI3K γ (read-out: PI3K γ IC50, Table 2), 25 to 50 nM; at PI3K β (read-out: PI3K β IC50, Table 2) it was over 500 nM; on PI3K δ (read-out: PI3K δ IC50) it was 10 to 25 nM.
Regarding `Nc1ncnc2c1c(-c1cc3cc(O)ccc3[nH]1)nn2C1CC(N2CCOCC2)C1` (centres unmarked) [Compound 49], the IC50 on PI3K α (read-out: PI3K α IC50) was over 500 nM; at mTOR (Table 2, read-out: mTORC IC50), under 10 nM; at PI3K γ (read-out: PI3K γ IC50, Table 2) it was 100 to 500 nM; on PI3K β (read-out: PI3K β IC50, Table 2) it was over 500 nM; on PI3K δ (read-out: PI3K δ IC50), 100 to 500 nM.
For the compound `Nc1ncnc2c1c(-c1cc3cccc(O)c3[nH]1)nn2C1CCN(C(=O)C2CC2)CC1` [Compound 41], the IC50 on PI3K α (read-out: PI3K α IC50, Table 2) is over 500 nM; on mTOR (Table 2, read-out: mTORC IC50) it was under 10 nM; on PI3K γ (read-out: PI3K γ IC50), 25 to 50 nM; on PI3K β (read-out: PI3K β IC50, Table 2), over 500 nM; on PI3K δ (read-out: PI3K δ IC50, Table 2) it was over 500 nM.
In the case of `CC(C)n1nc(-c2ccc3oc(N)nc3c2)c2c(N)ncnc21` [Compound B], the “effects on mTORC1 and mTORC2 (pNDRG1)” value in [1] was “differential effects on mTORC1 and mTORC2”. For the same compound, the “inhibition of Akt, S6, and 4EBP phosphorylation” value in test [2] (PTEN mutant cells, western blot (FIG. 6B)) is given as “selective inhibition”. Besides, in test [2] (combined treatment with Compound A and Compound B, western blot (FIG. 3)), the “downregulating Akt and S6 phosphorylation” value is on record as “synergistic effect”. For the same compound, the “inhibition of Akt phosphorylation at serine 473 over threonine 308” value in test [2] (western blot (FIG. 7)) is recorded as “differential inhibition”. Further, the “inhibition of kinase activity (downstream markers) and tumor growth” value in test [3] is given as “effective at inhibiting kinase activity”. In addition, in test [4], the “inhibition of Akt phosphorylation, serine 473 versus threonine 308” value is recorded as “differential inhibition of Akt phosphorylation at serine 473 over threonine 308”. The “mTORC1-dependent NRDG1 phosphorylation” value in the test with NRDG1 phosphorylation is “sensitivity”. Besides, the “tumor weight in a preclinical breast cancer model” value in the test with breast cancer model is “synergistic effect”.
`CN(C(=O)c1cnc2ccc(-c3ccc4oc(N)nc4c3)cn12)C1CCOCC1` [Compound 472] gave a 50% inhibitory concentration (IC50) in the test with PC3 of under 10000 nM.
Still for that read-out and setting: in the case of `Nc1nc2cc(-c3ccc4ncc(C(=O)N5CC[C@H](n6cccn6)C5)n4c3)ccc2o1` [Compound 478] it was under 1000 nM; in that of `CN1CCC(n2cnc3ccc(-c4cnc(Cl)c(NS(C)(=O)=O)c4)cc3c2=O)CC1` [Compound 526], under 10000 nM; in that of `C[C@H]1COCCN1C(=O)c1cnc2ccc(-c3ccc4oc(N)nc4c3)cn12` [Compound 483], under 10000 nM.
On the same count and under the same terms, next, `O=C(c1cnc2ccc(-c3cnc(Cl)c(NS(=O)(=O)c4ccc(F)cc4)c3)cn12)N1CCOCC1` [Compound 457]: under 1000 nM.
With `C[C@@H]1CN(C2CN(C(=O)c3cnc4ccc(-c5ccc6oc(N)nc6c5)cn34)C2)CCN1` [Compound 511], the 50% inhibitory concentration (IC50) in the test with PC3 and on PI3K γ (setting [5]) was under 10000 nM each time.
For `CC(C)n1nc(-c2cc3cccc(Cl)c3[nH]2)c2c(N)ncnc21` [Compound 50], the IC50 on PI3K α (read-out: PI3K α IC50, Table 2) was over 500 nM; on mTOR (Table 2, read-out: mTORC IC50), under 50 nM; on PI3K γ (read-out: PI3K γ IC50, Table 2), 100 to 500 nM; on PI3K β (read-out: PI3K β IC50, Table 2), over 500 nM; on PI3K δ (read-out: PI3K δ IC50) it was 100 to 500 nM.
Consider `COc1ccc(Cl)c2cc(-c3nn(C4CCOCC4)c4ncnc(N)c34)[nH]c12` [Compound 61], for which the half-inhibitory concentration (IC50) at PI3K α (read-out: PI3K α IC50, Table 2) is over 500 nM; at mTOR (Table 2, read-out: mTORC IC50), under 25 nM; on PI3K γ (read-out: PI3K γ IC50, Table 2) it was over 500 nM; at PI3K β (read-out: PI3K β IC50, Table 2), over 500 nM; on PI3K δ (read-out: PI3K δ IC50) it was over 500 nM.

The values above are taken from patent US9295673B2, “Combination of mTOR inhibitors and P13-kinase inhibitors, and uses thereof” (Intellikine LLC, priority 2011, dated 2016).
